Reference: US7378387B2, “Method of suppressing immune response by reducing intracellular content of glutathione in macrophages and monocytes” (Ajinomoto Co., Inc., priority 1997, dated 2008)
Positions of bridges follow the written chain, without caps; N, C: chain ends. Residues, ends and D or L forms follow the SMILES beside them. Chains are numbered I, II in the order given.

Experiments:
[1] = tested on: macrophage-like cells from tissues of rheumatoid arthritis patients; experiment: Intracellular GSH by ACAS in macrophage-like cells from tissues of rheumatoid arthritis patients (Example 17); assay type: cell-based, human; conditions: 3 hours; for relative ratio of oxidative macrophages (reduced amount of intracellular glutathione) compared with saline-added group: added at 2 mM; for induction of oxidative macrophage with the reduced amount of intracellular glutathione: added at 2 μM
Protocol: Synovial tissue was aseptically sampled from tissues resected during joint surgery. The sampled synovial tissue was rinsed in phosphate buffer, from which the surface was peeled off in a petri dish containing the same phosphate buffer. Then, the resulting synovial tissue was cut into pieces with a pair of scissors. To the pieces were added 2% hyaluronidase (manufactured by Sigma), 0.2% DNase (derived from bovine pancreas) and 5% collagenase, for enzymatic treatment at 37° C. for 2 hours. After discarding the resulting debris, a cell fraction recovered by centrifugation was adjusted to 5×10^5 cells/ml in a phenol red-free DMEM culture medium supplemented with 10% FCS (manufactured by Nikken Biology Co.). For 3 hours, the cells were allowed to adhere to the plastic surface. Plastic surface adherent macrophage-like cells harvested with a rubber policeman were then subjected to rinsing in combination with centrifugation three times using the culture medium under ice cooling. The resulting cells were designated as synovial tissue-derived macrophages and were then subjected to the following experiments.
By the same manner as in Example 3, macrophage-like cells were collected from tissues of rheumatoid arthritis patients, and were then suspended and adjusted in a phenol red-free RPMI 1640 culture medium supplemented with 10% fetal calf serum to 3×10^6 cells/ml. The suspension was divided in 100-μl portions on Lab-Tek Chamber Slide (#136439; manufactured by NUNC, CO.), for culturing in 5% CO2 at 37° C. for 3 hours; after discarding the nonadherent cells, the 200-μl serum-free culture medium further containing any of the following chemical agents was fed to the resulting culture, for reaction for 3 hours; and then, the resulting culture was rinsed three times, followed by addition of the serum-free culture medium of 200 μl and addition of monochlorobimane to a final concentration of 10 μM, for reaction for 30 minutes. The amount of intracellular GSH was assayed by imaging analysis with an ACAS system (manufactured by Meridian Co.).

[2] = tested on: reduced glutathione in intraperitoneal macrophages; experiment: Reduced glutathione in intraperitoneal macrophages of NOD mice by ACAS (Example 22); assay type: in vivo; conditions: doses given per substance
[3] = tested on: peritoneal exudate cells (macrophages); experiment: Induction of oxidative or reductive macrophages by administration, monochlorobimane/ACAS (Example 9); assay type: in vivo, DBA/2 mice; conditions: intraperitoneally 20 μg/0.5 ml/h each, twice a week for three weeks, 9-11 weeks of age
Protocol: This was clarified by harvesting peritoneal exudate cells 20 hours after the completion of the administration, adhering the cells to the plastic surface, then reacting the cells with 10 μM of monochlorobimane at 37° C. for 30 minutes, and analyzing the reaction product with ACAS. The increase in the amounts of oxidative macrophages can easily be determined visually from the fact that almost no reaction product with monochlorobimane is observed, namely, a gray or blue image is provided, and the increase in the amounts of reductive macrophages from the fact that a red or yellow image is provided respectively. […] Meanwhile, the same examination was conducted by harvesting peritoneal exudate cells after 20 hours of the administration of 2 mg of N-acetylcystine (NAC).

[4] = tested on: adjuvant-induced arthritis; experiment: Adjuvant-induced arthritis (AA) in rats, joint swelling (Examples 18 and 19); assay type: in vivo, Lewis rats; conditions: Table 4
Protocol: Adjuvant-induced arthritis was triggered in Lewis rats in a conventional manner; and the effects of chemical agents were examined in the animals. Adjuvant-induced arthritis is well known as an experimental arthritis inducible in rats [Taurog et al., Meth. Enzymol. 162, 339-355 (1988)]. […] An adjuvant is administered at 1 mg/0.1 ml per rate at a site of caudal root. The edema reaches its peak about 2 to 3 weeks after the administration of the adjuvant. The edema is triggered by inflammatory infiltration of monocytes. Swollen joints are measured with a micrometer every day; comparing the diameters of the joints prior to and after adjuvant administration and after initiation of the treatment with chemical agents with the diameters of the joints in the control group, the effects of the chemical agents were expressed as the ratio in % of joint swelling in the experimental groups to joint swelling in the control group. The effects were determined on day 15 after adjuvant administration. The chemical agents were given, starting the day next to the day of adjuvant administration, and every 3 days thereafter.
A single dose is 1 mg/kg for (NAC)2 and (NAC-OMe)2; 100 mg/kg for NAC; and 0.1 mg/kg for lentinan.
Adjuvant-induced arthritis was induced in Lewis rats in a conventional manner. In the same manner as in Example 11, the effects of chemical agents were examined in these rats. The conditions were the same as described above.

[5] = tested on: spontaneous onset of insulin-dependent diabetes mellitus; experiment: Onset of diabetes mellitus in NOD mice dosed at age 9 to 11 weeks (Example 25); assay type: in vivo; conditions: nine times
Description: NOD mice purchased from Nippon Clair, Co. were naturally mated together. Among the off spring mice, a colony of NOD mice with a high frequency of the spontaneous onset of insulin-dependent diabetes mellitus was established. Female NOD mice from the colony were used for the present experiment. Chemical agents were orally or intraperitoneally administered to the NOD mice aged 9 to 11 weeks three times per week, in total nine times; and based on the test results of urine glucose, positive or negative, the onset of diabetes mellitus was followed once per week. Urine glucose was detected, using Uropaper (BM Test Glucose 5000, manufactured by Yamanouchi Pharmaceuticals, Co. Ltd.). The onset was judged on week 22; the doses were the same as in Example 24.

[6] = tested on: spontaneous onset of insulin-dependent diabetes mellitus; experiment: Onset of diabetes mellitus in NOD mice dosed at age 3 to 6 and 9 to 11 weeks (Example 24); assay type: in vivo; conditions: doses as in the table line, 15 times in total, judged on week 22, saline 60
Description: NOD mice purchased from Nippon Clair, Co. were naturally mated together. Among the off spring mice, a colony of NOD mice with a high frequency of the spontaneous onset of insulin-dependent diabetes mellitus was established. Female NOD mice from the colony were used for the present experiment. […] Urine glucose was detected, using Uropaper (BM Test Glucose 5000, manufactured by Yamanouchi Pharmaceuticals, Co. Ltd.). The onset was judged on week 22.

[7] = tested on: insulin-non-dependent diabetes mellitus; experiment: Blood sugar level in db/db mice (Example 26); assay type: in vivo; conditions: intraperitoneal, age 4 to 9 weeks, three times per week; at satiation; saline 100
Description: db/db mice purchased from Nippon Clair, Co. were naturally mated together. Among the off spring mice, a colony of db/db mice with a high frequency of the spontaneous onset of insulin-non-dependent diabetes mellitus was established. Male db/db mice from the colony were used for the present experiment. Chemical agents were intraperitoneally administered to the db/db mice aged 4 to 9 weeks three times per week, in total 18 times; and based on the level of blood sugar in the mice at satiation, the effects of the chemical agents on the improvement of the diseased conditions of insulin-non-dependent diabetes mellitus were followed once per week. The doses were the same as in Example 24.

[8] = intraperitoneal dosing on alternate days from age 3-4 weeks
[9] = oral dosing on alternate days from age 3-4 weeks
[10] = intraperitoneal, judged on week 22, doses as in Example 24, saline 67

| Compound | relative ratio of oxidative macrophages (reduced amount of intracellular glutathione) compared with saline-added group [1] | relative ratio of oxidative macrophages compared with saline-dosed NOD mice [2, 8] | relative ratio of oxidative macrophages compared with saline-dosed NOD mice [2, 9] | induction of oxidative macrophage with the reduced amount of intracellular glutathione [1] | induction of oxidative macrophages on ACAS [3] | further results |
| --- | --- | --- | --- | --- | --- | --- |
| glutathione nitroxybutyl ester | same action was also observed | same action is also observed | same action is also observed | – | – | – |
| CC(=O)N[C@@H](CSSC[C@H](NC(C)=O)C(=O)OC(C)C)C(=O)OC(C)C [(NAC-OiPr)2, N,N′-diacetylcystine diisopropyl ester] | – | – | – | confirmed | induction of oxidative macrophages was confirmed | – |
| CC(=O)N[C@@H](CSSC[C@H](NC(C)=O)C(=O)OCCCCO[N+](=O)[O-])C(=O)O [N,N′-diacetylcystine nitroxybutyl ester] | – | – | – | confirmed | induction of oxidative macrophages was confirmed | – |
| O=C(O)CCCC[C@@H]1CCSS1 (racemic) [lipoic acid] | – | same action is also observed | – | – | – | – |
| COC(=O)[C@H](CSSC[C@H](NC(=O)[C@H](C)N)C(=O)OC)NC(=O)[C@H](C)N [(NAlaC-OMe)2, N,N′-di-L-alanylcystine dimethyl ester] (I: H-Ala-Cys-OMe / II: H-Ala-Cys-OMe; disulfide I:2-II:2) | – | – | – | confirmed | induction of oxidative macrophages was confirmed | Ratio in % of joint swelling in experimental groups to joint swelling in control group ([4]; intravenous): 45%; Frequency (%) of onset of diabetes mellitus ([5]; route not given, judged on week 22, saline 67): 11% |
| COC(=O)C(N)CCC(=O)NC(CS)C(=O)OC (stereo not shown) [γ-glutamylcysteine dimethyl ester] | same action was also observed | same action is also observed | – | – | – | Ratio in % of joint swelling in experimental groups to joint swelling in control group ([4]; intraperitoneal, 100 mg/kg): 120%; Frequency (%) of onset of diabetes mellitus ([6]; intraperitoneal): 10%; Frequency (%) of onset of diabetes mellitus ([6]; oral): 20%; Frequency (%) of onset of diabetes mellitus [5, 10]: 55%; Relative ratio % of blood sugar level, 6 weeks [7]: 85%; Relative ratio % of blood sugar level, 7 weeks [7]: 65%; Relative ratio % of blood sugar level, 8 weeks [7]: 60% |
| CCOC(=O)CNC(=O)[C@H](CS)NC(=O)CC[C@H](N)C(=O)OCC [glutathione diethyl ester] | same action was also observed | same action is also observed | same action is also observed | – | – | Ratio in % of joint swelling in experimental groups to joint swelling in control group ([4]; intraperitoneal, 100 mg/kg): 132%; Frequency (%) of onset of diabetes mellitus ([6]; intraperitoneal): 0%; Frequency (%) of onset of diabetes mellitus ([6]; oral): 0%; Frequency (%) of onset of diabetes mellitus [5, 10]: 67%; Relative ratio % of blood sugar level, 6 weeks [7]: 82%; Relative ratio % of blood sugar level, 7 weeks [7]: 62%; Relative ratio % of blood sugar level, 8 weeks [7]: 60% |
| CC(=O)N[C@@H](CS)C(=O)OCCCCO[N+](=O)[O-] [N-acetylcysteine nitroxybutyl ester] | same action was also observed | same action is also observed | same action is also observed | – | – | – |
